Measured values: US20200017496A1 (priority 2017, published 2020)
Read-outs that look alike come from different tables or passages of the source.

How the values were obtained:
Assay in all cases: MIC of compounds alone and combined with antibacterials, broth microdilution (CLSI)
Format in all cases: cell-based
[1] = tested on: Citrobacter koseri (CKR) isolates; settings: for MIC ATB in combination: AF1 @ 4 μg/mL; for MIC: Citrobacter koseri, ATB alone
Summary of the method: (§1)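 Compound MIC, and antibacterial MIC at each fixed compound level, taken by visual inspection as lowest concentration stopping growth. Inoculum: log-phase bacteria, final 5·10^5 CFU/mL, cation-adjusted Mueller-Hinton broth; 16-20 h, 35° C, ambient air.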

[2] = tested on: Enterobacter cloacae (ECL) isolates; settings: for MIC: Enterobacter cloacae, ATB alone
Summary of the method: as §1

[3] = tested on: Escherichia coli (ECO) isolates; settings: for MIC ATB in combination: AF1 @ 4 μg/mL; for MIC: Escherichia coli
Summary of the method: as §1

[4] = tested on: Morganella morganii (MMO) isolates; settings: for MIC ATB in combination: AF1 @ 4 μg/mL; for MIC: Morganella morganii, ATB alone
Summary of the method: as §1

[5] = tested on: Providencia stuartii (PST) isolates; settings: for MIC ATB in combination: AF1 @ 4 μg/mL; for MIC: Providencia stuartii, ATB alone, read-out: MIC
Summary of the method: as §1

CO/N=C(\C(=O)N[C@@H]1C(=O)N2C(C(=O)O)=C(COC(N)=O)CS[C@H]12)c1ccco1 [FUR, Cefuroxime]
256 µg/mL: MIC ([5]; strain PST UFR235 (VEB-1))
8 µg/mL: MIC ATB in combination ([3]; ECO 190457) | MIC ATB in combination ([3]; ECO RGN238) | MIC ATB in combination ([3]; ECO UFR61O) | MIC ATB in combination ([3]; ECO UFR62) | MIC ATB in combination ([3]; ECO UFR175) | MIC ATB in combination ([3]; ECO UFR187) | MIC ATB in combination ([3]; ECO UFR190) | MIC ATB in combination ([3]; ECO UFR191) | MIC ATB in combination ([3]; ECO UFR211) | MIC ([3]; strain ECO 131119 (TEM-1, OXA-48), ATB alone) | MIC ATB in combination ([5]; PST UFR94) | MIC ATB in combination ([5]; PST UFR235)
16 µg/mL: MIC ATB in combination ([2]; ECL UFR12, AF1 @ 4 μg/mL) | MIC ATB in combination ([2]; ECL UFR200, AF1 @ 4 μg/mL) | MIC ATB in combination ([3]; ECO UFR16) | MIC ATB in combination ([3]; ECO UFR19) | MIC ATB in combination ([3]; ECO UFR74) | MIC ATB in combination ([3]; ECO UFR186) | MIC ([3]; strain ECO 4133 (TEM-30, OXA-1), ATB alone) | MIC ([3]; strain ECO RGN238 (OXA-1), ATB alone) | MIC ([3]; strain ECO UFR15 (TEM-1, OXA-48), ATB alone) | MIC ATB in combination ([4]; MMO UFR240) | MIC ATB in combination ([4]; MMO UFR244) | MIC ATB in combination ([4]; MMO UFR247)
> 512 µg/mL: MIC ([2]; strain ECL P99 (AmpC), read-out: MIC) | MIC ([3]; strain ECO 190317 (TEM-1, SHV-12, CTX-M-15, OXA-1), ATB alone)
128 µg/mL: MIC ATB in combination ([1]; CKO UFR149) | MIC ATB in combination ([4]; MMO 200321) | MIC ([4]; strain MMO UFR243 (DHA-1), read-out: MIC) | MIC ([4]; strain MMO UFR245 (DHA-1), read-out: MIC) | MIC ([4]; strain MMO UFR246 (DHA-1), read-out: MIC) | MIC ([5]; strain PST UFR95 (TEM-24))
2 µg/mL: MIC ATB in combination ([3]; ECO 190549) | MIC ATB in combination ([3]; ECO 200159) | MIC ATB in combination ([3]; ECO 200259) | MIC ATB in combination ([3]; ECO 260508) | MIC ATB in combination ([3]; ECO UFR15) | MIC ATB in combination ([3]; ECO UFR174) | MIC ATB in combination ([3]; ECO UFR189) | MIC ATB in combination ([3]; ECO UFR207) | MIC ATB in combination ([3]; ECO UFR210)
64 µg/mL: MIC ([1]; strain CKO ROU (TEM-1, SHV-12, CTX-M-15, OXA-1, OXA-48), read-out: MIC) | MIC ([1]; strain CKO UFR150 (TEM-1, OXA-48), read-out: MIC) | MIC ATB in combination ([2]; ECL P99, AF1 @ 4 μg/mL) | MIC ATB in combination ([2]; ECL UFR60, AF1 @ 4 μg/mL) | MIC ATB in combination ([2]; strain ECL UFR196, antibacterial combined with AF1 @ 4 μg/mL) | MIC ATB in combination ([2]; strain ECL UFR197, antibacterial combined with AF1 @ 4 μg/mL) | MIC ATB in combination ([3]; ECO UFR20) | MIC ATB in combination ([3]; ECO UFR184) | MIC ([3]; strain ECO UFR86 (ompC-, ompF-), ATB alone, read-out: MIC) | MIC ATB in combination ([4]; MMO UFR246) | MIC ([4]; strain MMO UFR244 (DHA-1), read-out: MIC)
32 µg/mL: MIC ATB in combination ([1]; CKO ROU) | MIC ATB in combination ([1]; CKO UFR150) | MIC ATB in combination ([2]; ECL 200322, AF1 @ 4 μg/mL) | MIC ATB in combination ([2]; ECL 260508, AF1 @ 4 μg/mL) | MIC ATB in combination ([2]; ECL UFR70, AF1 @ 4 μg/mL) | MIC ATB in combination ([2]; ECL UFR194, AF1 @ 4 μg/mL) | MIC ([2]; strain ECL UFR194 (OXA-48)) | MIC ATB in combination ([2]; strain ECL UFR195, antibacterial combined with AF1 @ 4 μg/mL) | MIC ATB in combination ([3]; ECO UFR18) | MIC ATB in combination ([3]; ECO UFR86) | MIC ([3]; strain ECO 5302 (TEM-1, OXA-1), ATB alone) | MIC ATB in combination ([4]; MMO UFR144) | MIC ATB in combination ([4]; MMO UFR241) | MIC ATB in combination ([4]; MMO UFR242) | MIC ATB in combination ([4]; MMO UFR243) | MIC ATB in combination ([4]; MMO UFR245) | MIC ATB in combination ([5]; PST UFR95)
4 µg/mL: MIC ATB in combination ([2]; ECL 190408, AF1 @ 4 μg/mL) | MIC ATB in combination ([3]; ECO 4133) | MIC ATB in combination ([3]; ECO 5302) | MIC ATB in combination ([3]; ECO 131119) | MIC ATB in combination ([3]; ECO 180070) | MIC ATB in combination ([3]; ECO 190314) | MIC ATB in combination ([3]; ECO 190317) | MIC ATB in combination ([3]; ECO 200344) | MIC ATB in combination ([3]; ECO 260096) | MIC ATB in combination ([3]; ECO 260304) | MIC ATB in combination ([3]; ECO UFR176) | MIC ATB in combination ([3]; ECO UFR209) | MIC ATB in combination ([3]; ECO UFR218)
> 256 µg/mL: MIC ([1]; strain CKO UFR149 (OXA-48)) | MIC ([2]; strain ECL UFR197 (TEM-1, CTX-M-15, OXA-1, OXA-48)) | MIC ([2]; strain ECL UFR198 (TEM-1, SHV-12, CTX-M-15, DHA-1, OXA-1, OXA-48)) | MIC ([2]; strain ECL 2185D (OXA-163)) | MIC ([2]; strain ECL 190310 (AmpC)) | MIC ([2]; strain ECL 190408 (TEM-1, CTX-M-15, OXA-1)) | MIC ([2]; strain ECL 200138 (AmpC)) | MIC ([2]; strain ECL 200322 (TEM-1, CTX-M-15, OXA-1)) | MIC ([2]; strain ECL 260033 (AmpC)) | MIC ([2]; strain ECL 260253 (TEM-1, KPC-3)) | MIC ([2]; strain ECL 260323 (AmpC)) | MIC ([2]; strain ECL 260508 (TEM-1, CTX-M-15)) | MIC ([2]; strain ECL NEM146383 (AmpC)) | MIC ([2]; strain ECL UFR12 (CTX-M-9, OXA-48)) | MIC ([2]; strain ECL UFR13 (TEM-1, SHV-12, CTX-M-9, OXA-48)) | MIC ([2]; strain ECL UFR14 (TEM-1, SHV-12, CTX-M-15, DHA-1, OXA-1, OXA-48)) | MIC ([2]; strain ECL UFR60 (TEM-1, CTX-M-15, KPC-2)) | MIC ([2]; strain ECL UFR70 (TEM-1, CTX-M-15, CMY-2, OXA-1, Porin loss)) | MIC ([2]; strain ECL UFR84 (TEM-1, AmpC, OXA-1)) | MIC ([2]; strain ECL UFR85 (TEM-1, CTX-M-15, AmpC)) | MIC ([2]; strain ECL UFR195 (TEM-1, CTX-M-15, OXA-1, OXA-48)) | MIC ([2]; strain ECL UFR196 (TEM-1, CTX-M-15, OXA-1, OXA-48)) | MIC ([2]; strain ECL UFR200 (TEM-1, SHV-12, KPC-2)) | MIC [3] | MIC ([3]; strain ECO 180070 (TEM-1, CTX-M-15), ATB alone, read-out: MIC) | MIC ([3]; strain ECO 190314 (CTX-M-1), ATB alone, read-out: MIC) | MIC ([3]; strain ECO 190457 (CTX-M-15, OXA-1), ATB alone, read-out: MIC) | MIC ([3]; strain ECO 190549 (CTX-M-1), ATB alone, read-out: MIC) | MIC ([3]; strain ECO 200159 (TEM-1, CTX-M-14), ATB alone, read-out: MIC) | MIC ([3]; strain ECO 200259 (CTX-M-14), ATB alone, read-out: MIC) | MIC ([3]; strain ECO 200344 (CTX-M-1), ATB alone, read-out: MIC) | MIC ([3]; strain ECO 260096 (CTX-M-132), ATB alone, read-out: MIC) | MIC ([3]; strain ECO 260304 (CTX-M-15), ATB alone, read-out: MIC) | MIC ([3]; strain ECO 260508 (TEM-1, CTX-M-15, OXA-1), ATB alone, read-out: MIC) | MIC ([3]; strain ECO UFR16 (TEM-1, CTX-M-15, OXA-1, OXA-48), ATB alone, read-out: MIC) | MIC ([3]; strain ECO UFR17 (TEM-1, CTX-M-15, CMY-2, OXA-1, OXA-181), ATB alone, read-out: MIC) | MIC ([3]; strain ECO UFR18 (CTX-M-15, OXA-204), ATB alone, read-out: MIC) | MIC ([3]; strain ECO UFR19 (CTX-M-15, CMY-2, OXA-1, OXA-204), ATB alone, read-out: MIC) | MIC ([3]; strain ECO UFR20 (SHV-1, CTX-M-15, OXA-1, OXA-232), ATB alone, read-out: MIC) | MIC ([3]; strain ECO UFR74 (SHV-1, DHA-1), ATB alone, read-out: MIC) | MIC ([3]; strain ECO UFR184 (CTX-M-15, CMY-4, OXA-1, OXA-204), ATB alone, read-out: MIC) | MIC ([3]; strain ECO UFR185 (OXA-48), ATB alone, read-out: MIC) | MIC ([3]; strain ECO UFR186 (TEM-1, CTX-M-14, OXA-48), ATB alone, read-out: MIC) | MIC ([3]; strain ECO UFR187 (CTX-M-15, OXA-48), ATB alone, read-out: MIC) | MIC ([3]; strain ECO UFR189 (TEM-1, CTX-M-15, OXA-48), ATB alone, read-out: MIC) | MIC ([3]; strain ECO UFR190 (CTX-M-24, OXA-48), ATB alone, read-out: MIC) | MIC ([3]; strain ECO UFR191 (TEM-1, CTX-M-24, OXA-48), ATB alone, read-out: MIC) | MIC ([3]; strain ECO UFR207 (CTX-M-15), ATB alone, read-out: MIC) | MIC ([3]; strain ECO UFR208 (SHV-12), ATB alone, read-out: MIC) | MIC ([3]; strain ECO UFR209 (TEM-1, CTX-M-15), ATB alone, read-out: MIC) | MIC ([3]; strain ECO UFR210 (SHV-12), ATB alone, read-out: MIC) | MIC ([3]; strain ECO UFR212 (CMY-2), ATB alone, read-out: MIC) | MIC ([3]; strain ECO UFR218 (TEM-1, SHV-1, CTX-M-15), ATB alone, read-out: MIC) | MIC ([4]; strain MMO 200321 (TEM-1, CTX-M-15, OXA-1)) | MIC ([4]; strain MMO UFR144 (TEM-1, CTX-M-15)) | MIC ([4]; strain MMO UFR240 (CTX-M-9)) | MIC ([4]; strain MMO UFR241 (TEM-1, CTX-M-15)) | MIC ([4]; strain MMO UFR242 (TEM-52)) | MIC ([4]; strain MMO UFR247 (DHA-1), read-out: MIC) | MIC ([5]; strain PST UFR94 (CTX-M-14))
